Source: patent US8614218B2, “Fused bicyclic pyrimidines” (Bayer Intellectual Property GmbH, priority 2007, dated 2013)

Legend:
[1] = test system: phospho-Akt (Ser473); test: Cellular PI3K/Akt pathway assay (phospho-Akt ELISA); format: cell-based; conditions: Homo sapiens, MCF7 cells, β-Heregulin stimulated, 48 h incubation
From the text: Cellular PI3K/Akt Pathway Assay
In order to study the cellular activity of the compounds according to the present invention, an Enzyme Linked Immunosorbent Assay (ELISA)-based assay has been used specific phospho-AKT. The assay is based on a Sandwich ELISA kit (PathScan™ Phospho-Akt1 (Ser473); Cell Signaling, USA; #7160). The ELISA Kit detects endogenous levels of phosphorylated Akt protein. A phospho-Akt (Ser473) antibody (Cell Signaling, USA; #9271) has been coated onto the microwells. After incubation with cell lysates, the coated antibody captures the phosphorylated Akt protein. Following extensive washing, Akt1 monoclonal antibody (Cell Signaling, USA; #2967) is added to detect the captured phospho-Akt1 protein. HRP-linked anti-mouse antibody (HRP: horseradish peroxidase; Cell Signaling, USA; #7076) is then used to recognize the bound detection antibody. HRP substrate (=3,3′,5,5′-tetramethylbenzidine (TMB); Cell Signaling, USA; #7160) is added to develop colour. The magnitude of optical density for this developed color is proportional to the quantity of phosphorylated Akt protein.
MCF7 cells (ATCC HTB-22) are seeded into 96 well fate bottom plates at a density of 10000 cells/well. 24 hours after seeding, the cells are serum starved using low-serum medium (IMEM media including 0.1% charcoal treated FCS (FCS: fetal calf serum)). After 24 hours 1 μl each of the compound dilutions (test compounds were dissolved as 10 mM solutions in dimethylsulfoxide (DMSO) and subsequently diluted) are added into each well of the 96 well plates and incubated for 48 h at 37° C. in a humidified atmosphere containing 5% CO2. To stimulate Akt phosphorylation, β-Heregulin (20 ng/ml β-HRG) is added in parallel to the compounds. Wells containing unstimulated control cells (no β-Heregulin stimulation) are incubated with or without the diluted compound. Wells containing untreated control cells (no compound) are filled with medium containing 0.5% v:v DMSO and are or are not stimulated with β-Heregulin.
Cells are harvested and lysed with brief sonification in 1× cell lysis buffer (20 mM Tris (pH7.5), 150 mM NaCl, 1 mM ethylene diaminetetraacetate (EDTA), 1 mM ethylene glycolbis(2-aminoethyl)-N,N,N′,N′-tetraacetic acid (EGTA), 1 vol % Triton X-100, 2.5 mM sodium pyrophosphate, 1 mM β-glycerolphosphate, 1 mM Na3VO4, 1 μg/ml leupeptin). The lysate is centrifuged for 10 min. at 4° C. and the supernatant is transferred to a new tube. 100 μl of sample diluent (0.1 vol % Tween-20, 0.1 vol % sodium azide in phosphate buffered saline (PBS)) are added to a microcentrifuge tube and 100 μl of cell lysate are transferred into the tube and vortexed. 100 μl of each diluted cell lysate are added to the appropriate ELISA well, and incubated overnight at 4° C. The plates are washed 4 times with 1× wash buffer (1 vol % tween-20, 0.33 vol % thymol, in PBS). Next 100 μl of detection antibody (Akt1 (2H10) monoclonal detection antibody; Cell Signaling, USA; #2967) are added to each well and incubation continued for 1 h at 37° C. The washing procedure is repeated between each step. 100 μl of secondary antibody (anti-mouse IgG HRP-linked antibody; Cell Signaling, USA; #7076) are added to each well and incubated for 30 min. at 37° C. Than, 100 μl of TMB substrate (0.05% 3,3′,5,5′ tetramethylbenzidine, 0.1% hydrogen peroxide, complex polypeptides in a buffered solution; Cell Signaling, USA; #7160) are added to each well and incubated for 30 min. at 25° C. Finally 100 μl of STOP solution (0.05 vol % α and β unsaturated carbonyl compound) are added to each well and the plate are shaked gently. The absorbance is measured at λ=450 nm (Wallac Victor2; Perkin Elmer, USA) within 30 min. after adding the STOP solution. The analysis of the data is performed using a statistical program (Excel; Microsoft, USA). Preferred compounds show an inhibitory activity towards Akt phosphorylation below 10 μM.

[2] = test system: phospho-GSK3 (Ser9); test: Cellular pGSK3 assay (phospho-GSK3 ELISA); format: cell-based; conditions: Homo sapiens, MCF7 cells, 48 h incubation, read-out: Cellular pGSK3 pathway assay
Protocol: In order to study the cellular activity of the compounds according to the present invention, an ELISA-based assay has been established for the phosphorylated protein glycogen synthetase kinase 3 (GSK3). The assay is based on a solid phase sandwich ELISA that detects endogenous levels of phosphorylated GSK3 using a phospho-GSK3 (Ser9) specific antibody (BioSource International, Inc.; Catalog #KHO0461). After incubation with cell lysates, the coated antibody captures the phosphorylated GSK3 protein. Following extensive washing, GSK3 polyclonal antibody is added to detect the captured phospho-GSK3 protein. Secondary antibody (anti-rabbit IgG-HRP) is then used to recognize the bound detection antibody. After the second incubation and washing to remove all the excess anti-rabbit IgG-HRP, a substrate solution is added, which is acted upon by the bound enzyme to produce color. The intensity of this colored product is directly proportional to the concentration of GSK-3β [pS9] present in the original specimen. MCF7 cells (ATCC HTB-22) were seeded into 96 well fate bottom plates at a density of 10000 cells/well. After 24 h 1 μl each of the compound dilutions (test compounds were dissolved as 10 mM solutions in dimethylsulfoxide (DMSO) and subsequently diluted) were added into each well of the 96 well plates and incubated for 48 h at 37° C. in a humidified atmosphere containing 5% CO2. Cells were harvested and lysed in cell extraction buffer (10 mM Tris, pH 7.4, 100 mM NaCl, 1 mM EDTA, 1 mM EGTA, 1 mM NaF, 20 mM Na4P2O7, 2 mM Na3VO4, 1% Triton X-100, 10 vol % glycerol, 0.1 vol % SDS, 0.5 vol % deoxycholate, 1 mM phenylmethylsulfonylfluoride (PMSF)). The lysate were centrifuged for 10 min. at 4° C. and the supernatant were transferred to a new tube. 50 μl of sample diluent (standard diluent buffer, Biosource) were added and 100 μl of cell lysate transferred into the tube and vortexed. 100 μl of each diluted cell lysate were added to the appropriate ELISA well plate and incubated for 3 h at room temperature. The plates were washed 4 times with 1× wash buffer (Biosource). 50 μl of detection antibody (GSK3 (Ser9) detection antibody; BioSource) were added to each well and incubated for 30 min. at room temperature. The washing procedure was repeated between each step. 100 μl of HRP-linked secondary antibody (anti-mouse IgG HRP-linked antibody) were added to each well and incubated for 30 min. at room temperature. 100 μl of TMB substrate (0.05 vol % 3,3′,5,5′ tetramethylbenzidine, 0.1 vol % hydrogen peroxide, complex polypeptides in a buffered solution; Biosource) were added to each well and incubated for 30 min. at room temperature. Finally 100 μl of Stop solution (0.05 vol % α and β unsaturated carbonyl compound) were added to each well and the plate were shaked gently for a few seconds. The absorbance was measured at λ=450 nm (Wallac Victor2; Perkin Elmer, USA) within 30 min. after adding the stop solution.
The analysis of the data was performed using a statistical program (Excel; Microsoft, USA) and the IC50 of pGSK3 inhibition was determined.

Structure (SMILES)	IC50 [1]	IC50 [2]
N#Cc1cnn2cc(-c3ccccc3)c(-c3ccc(CN4CCC(c5n[nH]c(-c6ccccn6)n5)CC4)cc3)nc12 [Example 32, 6-Phenyl-5-(4-{[4-(5-pyridin-2-yl-1H-1,2,4-triazol-3-yl)piperidin-1-yl]methyl}phenyl)pyrazolo[1,5-a]pyrimidine-3-carbonitrile]	< 1000 nM	< 1000 nM
C#Cc1cnn2cc(-c3ccccc3)c(-c3ccc(CN4CCC(c5n[nH]c(-c6ccccn6)n5)CC4)cc3)nc12 [Example 33, 3-Ethynyl-6-phenyl-5-(4-{[4-(5-pyridin-2-yl-1H-1,2,4-triazol-3-yl)piperidin-1-yl]methyl}phenyl)pyrazolo[1,5-a]pyrimidine]	< 1000 nM	1000 to 10000 nM
CCc1nc2nc(-c3ccc(CN4CCC(c5n[nH]c(-c6ccccn6)n5)CC4)cc3)c(-c3ccccc3)cn2n1 [Example 40, 2-Ethyl-6-phenyl-5-(4-{[4-(5-pyridin-2-yl-1H-1,2,4-triazol-3-yl)piperidin-1-yl]methyl}phenyl)[1,2,4]triazolo[1,5-a]pyrimidine]	< 1000 nM	< 1000 nM
CCc1cnn2cc(-c3ccccc3)c(-c3ccc(CN4CCC(c5n[nH]c(-c6ccccn6)n5)CC4)cc3)nc12 [Example 34, 3-Ethyl-6-phenyl-5-(4-{[4-(5-pyridin-2-yl-1H-1,2,4-triazol-3-yl)piperidin-1-yl]methyl}phenyl)pyrazolo[1,5-a]pyrimidine]	< 1000 nM	1000 to 10000 nM
Clc1cnn2cc(-c3ccccc3)c(-c3ccc(CN4CCC(c5n[nH]c(-c6ccccn6)n5)CC4)cc3)nc12 [Example 30, 3-Chloro-6-phenyl-5-(4-{[4-(5-pyridin-2-yl-1H-1,2,4-triazol-3-yl)piperidin-1-yl]methyl}phenyl)pyrazolo[1,5-a]pyrimidine]	< 1000 nM	< 1000 nM
CC(c1ccc(-c2nc3nccn3cc2-c2ccccc2)cc1)N1CCC(c2n[nH]c(-c3ccccn3)n2)CC1 (racemic) [Example 23, 6-phenyl-7-(4-{1-[4-(5-pyridin-2-yl-1H-1,2,4-triazol-3-yl)piperidin-1-yl]ethyl}phenyl)imidazo[1,2-a]pyrimidine]	< 1000 nM	> 10000 nM
Cc1cccc(-c2nc(C3CCN(Cc4ccc(-c5nc6nccn6cc5-c5ccccc5)cc4)CC3)n[nH]2)n1 [Example 36, 7-[4-({4-[5-(6-Methylpyridin-2-yl)-1H-1,2,4-triazol-3-yl]piperidin-1-yl}methyl)phenyl]-6-phenylimidazo[1,2-a]pyrimidine]	< 1000 nM	< 1000 nM

Results, then the molecule that gave them:

IC50 [1]	IC50 [2]	Structure (SMILES)
< 1000 nM	1000 to 10000 nM	Cc1ccnc(-c2nc(C3CCN(Cc4ccc(-c5nc6nccn6cc5-c5ccccc5)cc4)CC3)n[nH]2)c1 [Example 35, 7-[4-({4-[5-(4-Methylpyridin-2-yl)-1H-1,2,4-triazol-3-yl]piperidin-1-yl}methyl)phenyl]-6-phenylimidazo[1,2-a]pyrimidine]
< 1000 nM	< 1000 nM	Brc1cnn2cc(-c3ccccc3)c(-c3ccc(CN4CCC(c5n[nH]c(-c6ccccn6)n5)CC4)cc3)nc12 [Example 31, 3-Bromo-6-phenyl-5-(4-{[4-(5-pyridin-2-yl-1H-1,2,4-triazol-3-yl)piperidin-1-yl]methyl}phenyl)pyrazolo[1,5-a]pyrimidine]
< 1000 nM	> 10000 nM	Fc1cnc2nc(-c3ccc(CN4CCC(c5n[nH]c(-c6ncccn6)n5)CC4)cc3)c(-c3ccccc3)cn12 [Example 25, 3-fluoro-6-phenyl-7-(4-{[4-(5-pyrimidin-2-yl-1H-1,2,4-triazol-3-yl)piperidin-1-yl]methyl}phenyl)imidazo[1,2-a]pyrimidine]
< 1000 nM	1000 to 10000 nM	Fc1cnc2nc(-c3ccc(CN4CCC(c5n[nH]c(-c6cnccn6)n5)CC4)cc3)c(-c3ccccc3)cn12 [Example 24, 3-fluoro-6-phenyl-7-(4-{[4-(5-pyrazin-2-yl-1,2,4-triazol-3-yl)piperidin-1-yl]methyl}phenyl)imidazo[1,2-a]pyrimidine]
